One assay concerns the target WEE1 kinase enzyme (Homo sapiens (Human), UniProt P30291). Description: WEE1 IC50 determination, LanthaScreen Terbium Labeled TR-FRET kinase assay. It counts as biochemical. The following applies: WEE1 enzyme 1 nM, ATP 10 μM, 1 h.
The subject of a further assay is NCI-H460 cells. Nature of the assay: Cell proliferation assay (Cell Titer-Glo) in NCI-H460 cells. Format: cell-based. The conditions noted are these: Homo sapiens, typically 72 h. The protocol:
(§1) The effects of test compounds were studied in five cell lines with various histotypes. The cancer cells (Table 4) were harvested during the logarithmic growth period and counted. Adjust cell concentrations to the appropriated number with respective medium, and add 90 μL cell suspensions to 96-well plates. After cells were seeded, the plates were shaken gently to distribute cells evenly and incubated at 37° C., 5% CO2 on day 1.
(§2) Cells were treated with test compounds at 9 concentrations within a desired concentration range (e.g. 1.5 nM-10 μM) on day 2 by series diluting the test compound stock solution (10 mM in DMSO) with culture medium. Cell viability was assessed by Cell Titer-Glo® as recommended by Promega (Cat. No.: G7572, Promega) typically 72 h post-treatment.
(§3) Cell viability data were plotted using GraphPad Prism (version 5, GraphPad Software, Inc., San Diego, Calif.). In addition, a nonlinear regression model with a sigmoidal dose response and variable slope within GraphPad Prism was used to calculate the IC50 value of individual test compounds.
For orientation: Cellular ATP, detected with luciferase, serves as a proxy for viable cell number.

The next assay has as its system HCT-116 cells. Description: Cell proliferation assay (Cell Titer-Glo) in HCT-116 cells. Format: cell-based. The conditions noted are these: Homo sapiens; HCT-116, Cell Titer-Glo, typically 72 h; read-out: IC50 HCT116. The protocol: as §1, §2, §3
Assay [1] has as its system A427 cells. Description: Cell proliferation assay (Cell Titer-Glo) in A427 cells. It counts as cell-based. The following applies: Homo sapiens, A-427, typically 72 h. As to the method:
as §1, §3

The test system of a further assay is A549 cells. Nature of the assay: Cytotoxicity assay (resazurin) in A549 cells. Format: cell-based. The conditions noted are these: Homo sapiens, A549, 96 hr, read-out: Cell Viability IC50 A549. As to the method: (§4) Cells were allowed to grow at 37° C. for 24 hr in 5% CO2 environment (culture conditions) in a Nuaire incubator (humidified). Serially diluted test compounds (100 μL) within the desired testing concentration ranges were added to the culture plate were further incubated in culture conditions for 72 hr and 96 hr for A427 and A549 respectively. The experiment was terminated at the designated incubation time by replacing the medium with 100 μL of 1 mM of resazurin (R7017; Sigma) prepared in respective culture medium, and the plates were further incubated in culture conditions for 4-6 hr. Fluorescence was recorded using a multimodal plate reader (Biotek Synergy Neo) at an excitation wavelength of 535 nm and emission wavelength of 590 nm to obtain relative fluorescence units. Data analysis was done by subtracting the background fluorescence (only medium blank) value from each reading and then normalizing with the vehicle control (DMSO treated cells) to obtain percent survival/proliferation. Percent survival was then subtracted by 100 to get the percent inhibition of proliferation which was used to calculate IC50 values.

Assay [2] has as its system A427 cells. Description: Cytotoxicity assay (resazurin) in A427 cells. Format: cell-based. The following applies: Homo sapiens, read-out: Cell Viability IC50 A427. Background: Alamar Blue is a resazurin reagent that responds to reducing activity.
A further assay deals with LoVo cells. Description: Cell proliferation assay (Cell Titer-Glo) in LoVo cells. The conditions noted are these: Homo sapiens, typically 72 h. Format: cell-based. The protocol: as §1, §2, §3
Another assay relates to A2780 cells. Description: Cell proliferation assay (Cell Titer-Glo) in A2780 cells. Format: cell-based. The conditions noted are these: Homo sapiens, typically 72 h. As to the method: as §1, §2, §3
Assay [3] concerns Panc 10.05 cells. Description: Cytotoxicity assay (resazurin) in Panc 10.05 cells. It counts as cell-based. The following applies: Homo sapiens, Panc1005; Panc 10.05, resazurin; read-out: Cell Viability IC50 Panc 10.05. As to the method:
[The source words this procedure for another cell line and reports this cell line under the same test.] as §4, with “A549 (CCL-185; ATCC) and A427 (HTB-53; ATCC), both lung epithelial cell lines were seeded in their respective medium (DMEM/MEM, 10569044/41090101; Gibco) at a cell count of 1500 cells per 100 μL per well in a 96 well edge plate (167425; ThermoFisher). Cells” for “Cells”, “values. Potency of compounds in other cell lines (As-Pc-1, Panc 10.05, A172) was determined in an analogous manner.” for “values.”

In another assay the test system is As-Pc-1 cells. Description: Cytotoxicity assay (resazurin) in As-Pc-1 cells. The following applies: Homo sapiens, ASPC1; As-Pc-1, resazurin; read-out: Cell Viability IC50 As-Pc-1. Format: cell-based. The protocol: [The source words this procedure for another cell line and reports this cell line under the same test.] as §4, with “A549 (CCL-185; ATCC) and A427 (HTB-53; ATCC), both lung epithelial cell lines were seeded in their respective medium (DMEM/MEM, 10569044/41090101; Gibco) at a cell count of 1500 cells per 100 μL per well in a 96 well edge plate (167425; ThermoFisher). Cells” for “Cells”, “values. Potency of compounds in other cell lines (As-Pc-1, Panc 10.05, A172) was determined in an analogous manner.” for “values.”

The test system of assay [4] is Panc 10.05 cells. Nature of the assay: Synergistic activity with gemcitabine, combination matrix method, Panc 10.05 cells. The following applies: fractional effect level of about 0.5, Chou-Talalay. It counts as cell-based. As to the method:
(§5) Determination of synergistic activity of compounds in combination with a chemotherapeutic drug on cell viability is determined by a combination matrix method. Chemotherapeutics that may be used in the combination include but are not limited to a platinum-based chemotherapeutic agent, a DNA alkylating agent, a topoisomerase inhibitor, an anthracycline, a histone deacetylase inhibitor, a bromodomain inhibitor, a kinase inhibitor, a mTOR inhibitor, a PARP inhibitor, an ATM inhibitor, an ATR inhibitor, a Wee1 inhibitor, a proteasome inhibitor, and a nucleotide analog or precursor analog. Cancer cell lines that may be used in the assay include but are not limited to lung cancer, leukemia, lymphoma, multiple myeloma, ovarian cancer, breast cancer, pancreatic cancer, stomach cancer, colon cancer, liver cancer, head and neck cancer, kidney cancer, skin cancer and brain cancer cell lines. Cells are seeded in a 96-well plate and incubated at 37° C. in cell culture conditions for 24 hr. […] Measurement of fluorescence at an excitation and emission wavelength of 535 and 590 nm respectively. Synergy is evaluated with the combination index (CI) value using the Chou-Talalay method in which additive effect (CI=1), synergism (CI<1), and antagonism (CI>1) in drug combinations is determined (Chou T C. Cancer Res 2010; 70:440-6.). […]

A further assay concerns AsPC-1 cells. Nature of the assay: Synergistic activity with gemcitabine, combination matrix method, AsPC-1 cells. Format: cell-based. The conditions noted are these: fractional effect level of about 0.5, Chou-Talalay. The protocol:
as §5

Another assay relates to A172 cells. Description: Cytotoxicity assay (resazurin) in A172 cells. Format: cell-based. The conditions noted are these: Homo sapiens, A 172, read-out: Cell Viability IC50 A172. The protocol:
[The source words this procedure for another cell line and reports this cell line under the same test.] as §4, with “A549 (CCL-185; ATCC) and A427 (HTB-53; ATCC), both lung epithelial cell lines were seeded in their respective medium (DMEM/MEM, 10569044/41090101; Gibco) at a cell count of 1500 cells per 100 μL per well in a 96 well edge plate (167425; ThermoFisher). Cells” for “Cells”, “values. Potency of compounds in other cell lines (As-Pc-1, Panc 10.05, A172) was determined in an analogous manner.” for “values.”

Each structure is given as a SMILES string. Where only a bound is given, the exact number is not on record here.

WEE1 kinase enzyme, sequence (P30291 whole entry): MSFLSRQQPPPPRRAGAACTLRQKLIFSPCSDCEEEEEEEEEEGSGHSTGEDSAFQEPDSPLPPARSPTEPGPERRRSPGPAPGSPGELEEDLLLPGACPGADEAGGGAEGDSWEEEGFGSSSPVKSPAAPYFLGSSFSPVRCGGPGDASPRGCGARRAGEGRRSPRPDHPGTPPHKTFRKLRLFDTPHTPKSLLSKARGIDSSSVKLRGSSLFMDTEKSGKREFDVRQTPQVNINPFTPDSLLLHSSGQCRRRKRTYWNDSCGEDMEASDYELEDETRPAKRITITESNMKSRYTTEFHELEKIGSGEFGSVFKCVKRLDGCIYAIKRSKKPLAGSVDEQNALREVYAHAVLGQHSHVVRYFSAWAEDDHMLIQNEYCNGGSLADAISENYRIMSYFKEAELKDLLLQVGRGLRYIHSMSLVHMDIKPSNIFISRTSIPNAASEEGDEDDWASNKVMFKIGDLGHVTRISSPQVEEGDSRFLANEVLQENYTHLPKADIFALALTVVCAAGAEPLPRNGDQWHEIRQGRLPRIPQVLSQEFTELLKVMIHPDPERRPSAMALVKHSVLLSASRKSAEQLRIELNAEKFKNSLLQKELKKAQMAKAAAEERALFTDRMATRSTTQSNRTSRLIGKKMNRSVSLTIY

The term IC50 denotes the concentration needed to halve the response being measured. Consider `C=CCn1c(=O)c2cnc(Nc3ccc4c(c3)CNCC4)nc2n1-c1cccc(C(C)(C)O)n1` [Example 1.1], for which the IC50 at WEE1 kinase enzyme is 0.0024 µM; with NCI-H460 cells, greater than 10 µM; with HCT-116 cells, 1.04 µM; with A427 cells [1], 0.064 µM; with A549 cells, 0.46 µM; with A427 cells [2] (A-427, A427, 72 hr), 0.095 µM. In the assay on LoVo cells, this compound returned an IC50 of 0.258 µM.

On to `CCn1c(=O)c2cnc(Nc3ccc4c(c3)CNCC4)nc2n1-c1cccc(C(C)(C)O)n1` [Example 1.7], for which the IC50 at WEE1 kinase enzyme was found to be 0.003 µM; in the assay with A549 cells it was 0.66 µM; with A427 cells [2] (A-427, 72 h, A427, 72 hr) it was 0.8 µM; in the assay on A2780 cells it was 1.1 µM.

In the case of `CC(C)n1c(=O)c2cnc(Nc3ccc4c(c3)CCNC4)nc2n1-c1ccnc(C(C)(C)C)c1` [Example 1.138], the IC50 stood at 0.006 µM at WEE1 kinase enzyme; 2.82 µM in the assay on Panc 10.05 cells [3]; 0.2 µM in the assay with As-Pc-1 cells; 2.42 µM in the assay on A549 cells; 0.993 µM in the assay with A427 cells [2] (A-427, 72 h, A427, 72 hr); 4.09 µM with A172 cells. Moreover, the “combination index with gemcitabine” value in the assay on Panc 10.05 cells [4] and in the assay on AsPC-1 cells was “less than 1” in each case.
